pIC50: −log10 of the molar value.
Each compound was assayed against T1, Ubiquitin carboxyl-terminal hydrolase 19 (Homo sapiens, UniProt O94966) (assay: Fluorescence Polarization (FP) Homogeneous Assay).
T1 sequence (O94966 whole entry): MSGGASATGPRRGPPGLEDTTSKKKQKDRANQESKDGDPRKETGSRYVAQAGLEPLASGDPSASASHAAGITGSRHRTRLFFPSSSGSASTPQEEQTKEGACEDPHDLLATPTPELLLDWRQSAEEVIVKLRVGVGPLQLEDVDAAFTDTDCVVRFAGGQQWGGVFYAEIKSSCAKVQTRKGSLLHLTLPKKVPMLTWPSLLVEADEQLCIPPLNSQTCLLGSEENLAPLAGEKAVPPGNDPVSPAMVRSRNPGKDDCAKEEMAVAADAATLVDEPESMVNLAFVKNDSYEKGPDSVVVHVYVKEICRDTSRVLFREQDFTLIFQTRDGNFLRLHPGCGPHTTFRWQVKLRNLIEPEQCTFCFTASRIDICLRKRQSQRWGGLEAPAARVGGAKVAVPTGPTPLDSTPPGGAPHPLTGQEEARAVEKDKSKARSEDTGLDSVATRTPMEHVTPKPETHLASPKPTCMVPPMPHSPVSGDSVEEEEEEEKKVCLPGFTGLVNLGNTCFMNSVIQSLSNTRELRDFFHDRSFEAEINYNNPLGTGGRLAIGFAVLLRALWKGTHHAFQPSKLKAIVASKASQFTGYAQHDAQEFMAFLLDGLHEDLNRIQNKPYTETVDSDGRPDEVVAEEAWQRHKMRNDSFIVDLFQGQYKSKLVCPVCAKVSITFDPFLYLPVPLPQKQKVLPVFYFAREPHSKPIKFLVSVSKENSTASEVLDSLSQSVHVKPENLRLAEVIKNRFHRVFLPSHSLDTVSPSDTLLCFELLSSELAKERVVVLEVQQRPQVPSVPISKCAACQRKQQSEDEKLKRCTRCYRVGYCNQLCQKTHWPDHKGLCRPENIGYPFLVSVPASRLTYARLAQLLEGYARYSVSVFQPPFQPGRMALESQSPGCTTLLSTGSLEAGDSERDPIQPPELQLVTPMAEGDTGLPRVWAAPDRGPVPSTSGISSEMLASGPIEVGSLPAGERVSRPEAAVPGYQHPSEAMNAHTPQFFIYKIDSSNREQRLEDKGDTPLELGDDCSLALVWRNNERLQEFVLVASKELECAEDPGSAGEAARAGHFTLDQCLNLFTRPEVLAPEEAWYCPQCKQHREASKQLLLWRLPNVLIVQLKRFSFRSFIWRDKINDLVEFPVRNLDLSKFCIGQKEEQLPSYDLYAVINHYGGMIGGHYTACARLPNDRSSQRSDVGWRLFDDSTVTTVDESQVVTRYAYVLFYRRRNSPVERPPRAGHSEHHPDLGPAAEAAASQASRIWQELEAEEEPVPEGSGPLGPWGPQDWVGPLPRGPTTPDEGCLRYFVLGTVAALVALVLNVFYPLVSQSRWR
Description: Unless otherwise stated, all other reagents were purchased from Sigma. Enzymatic reactions were conducted in black flat bottom polystyrene 384-well plates (Nunc) and 30 μL total volume. […] Inhibitors were stored as 10 mM DMSO stocks in an inert environment (low humidity, dark, low oxygen, room temperature) using the Storage Pod System and serial dilutions were prepared in buffer just prior to the assay (from 200 μM to 2 pM, 8-18 data point curve). Following incubation at rt for 30 min, the enzymatic reactions were initiated by dispensing the Ub substrate (500 nM, 10 μL). FP was measured every 15 min over a period of 90 min (within the linear range of the assay) using a Synergy 4 plate reader (BioTek) exciting at 530 nm and measuring the amount of parallel and perpendicular light at 575 nm. The FP signal was subsequently normalized to the no compound control.

| SMILES | pIC50 |
| --- | --- |
| O=C(N1CC[C@@](O)(Cn2ncc(-c3ccccc3)cc2=O)C2(CCCC2)C1)N1CCOC[C@H]1c1ccccc1 [US11807646, Example 280] | > 6.30 |
| CS(C)(=O)=Nc1cn(CC2(O)CCN(C(=O)N3CCNC[C@H]3c3ccccc3)CC23CCCC3)c(=O)cc1-c1ccccc1 (some centres not stated) [US11807646, Example 191] | > 6.30 |
| O=C1CN(c2ccccc2)CCN1CC1(O)CCN(C(=O)NCc2ccccc2)CC12CCCC2 (configuration not stated) [US11807646, Example 109] | > 6.30 |
| O=C(N1CC[C@@](O)(Cn2cc(F)c(-c3ccccc3)cc2=O)C2(CCCC2)C1)N1CCNC[C@H]1c1ccccc1 [US11807646, Example 331] | > 6.30 |
| CN(C)c1cc(=O)n(C[C@]2(O)CCN(C(=O)N3CCNC[C@H]3c3ccccc3)CC23CCCC3)cn1 [US11807646, Example 318] | > 6.30 |
| O=C(N1CC[C@@](O)(Cn2cnc(-c3ccccc3)cc2=O)C2(CCCC2)C1)N1CC[S+]([O-])CC1c1ccccc1 (some centres not stated) [US11807646, Example 337] | > 6.30 |
| O=C(N1CCC(O)(Cn2cnc(-c3ccccc3)cc2=O)C2(CCOCC2)C1)N1CCNC[C@H]1c1ccccc1 (some centres not stated) [US11807646, Example 321] | > 6.30 |

Source: BindingDB's records for patent US11807646 (Almac Discovery, 2023)
